Source: patent US7910751B2, “Heterocyclidene acetamide derivative” (Mochida Pharmaceutical Co., Ltd., priority 2005, dated 2011)

These compounds were tested against T1, human TRPV1 (Homo sapiens, UniProt Q8NER1) (assay: Measurement of capsaicin-induced Ca influx in human TRPV1 transformed CHO cell line using FDSS-6000). Details: concentration at which the capsaicin concentration-reaction curve is shifted two times to the right, human TRPV1 transformed CHO cells.
T1 construct: expressed in transfected cells; host or cells: CHO-K1
T1 sequence (Q8NER1 whole entry): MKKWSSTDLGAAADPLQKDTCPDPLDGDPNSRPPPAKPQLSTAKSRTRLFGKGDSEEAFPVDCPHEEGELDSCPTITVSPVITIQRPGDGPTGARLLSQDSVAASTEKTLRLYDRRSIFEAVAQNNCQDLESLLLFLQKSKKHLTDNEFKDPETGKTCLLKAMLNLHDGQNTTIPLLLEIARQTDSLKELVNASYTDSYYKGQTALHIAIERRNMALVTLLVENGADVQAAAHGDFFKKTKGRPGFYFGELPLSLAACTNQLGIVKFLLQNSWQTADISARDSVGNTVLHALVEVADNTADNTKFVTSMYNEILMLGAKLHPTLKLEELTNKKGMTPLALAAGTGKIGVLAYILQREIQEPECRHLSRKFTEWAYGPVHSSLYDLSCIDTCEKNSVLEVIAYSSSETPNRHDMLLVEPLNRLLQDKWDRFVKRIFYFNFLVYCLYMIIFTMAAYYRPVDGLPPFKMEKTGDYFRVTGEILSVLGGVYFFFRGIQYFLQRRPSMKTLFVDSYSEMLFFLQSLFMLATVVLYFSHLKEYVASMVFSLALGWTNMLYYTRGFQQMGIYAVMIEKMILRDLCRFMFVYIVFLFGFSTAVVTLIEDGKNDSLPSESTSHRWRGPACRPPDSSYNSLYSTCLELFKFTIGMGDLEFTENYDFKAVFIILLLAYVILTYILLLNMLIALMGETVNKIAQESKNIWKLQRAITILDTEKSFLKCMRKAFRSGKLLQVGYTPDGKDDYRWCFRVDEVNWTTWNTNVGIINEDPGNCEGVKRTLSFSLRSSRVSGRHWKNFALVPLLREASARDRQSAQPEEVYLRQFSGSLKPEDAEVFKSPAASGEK
Format: cell-based
Source text: [Measurement of Capsaicin-Induced Ca Influx in Human TRPV1 Transformed CHO Cell Line]
(1) Establishment of Human TRPV1 Transformed CHO Cell Line
Human vanilloid receptor 1 (hTRPV1) cDNA was cloned from a human brain. The cloned hTRPV1 cDNA was incorporated in a pCAGGS vector. The gene of the vector was introduced to a CHO-K1 cell line, thus performing transformation. Clones obtained by limiting dilution were stimulated with capsaicin. Clones with a high responsiveness were selected using an increase in the Ca concentration as an indicator. The selected clones were used for the following experiment.
(2) Measurement of Ca Influx Using FDSS-6000
The human TRPV1 transformed CHO cells were seeded in a 96-well plate (with black walls and transparent bottoms, manufactured by Greiner) at a density of 40,000 cells per well. The cells were cultured at 37° C. in 5% CO2 for one night. A loading solution of FLIPR Calcium 3 assay kit (manufactured by Molecular Devices Corporation) containing 2.5 mmol/L of probenecid was then added to each of the wells in the same amount as the culture medium, and the cells were cultured at 37° C. for 60 minutes. After the cells were stimulated with capsaicin (1 nmol/L to 1 μmol/L), the change in the Ca concentration in the cells was measured using FDSS-6000 (λex: 480 nm, λem: 540 nm, manufactured by Hamamatsu Photonics K.K.) for three minutes. The integrated values of the increase rate of the Ca concentration in the cells were calculated for a group treated with the compounds of the present invention and a group treated with a medium, thus allowing capsaicin concentration-reaction curves to be obtained. A concentration (A2 value) of each of the compounds of the present invention, at which the capsaicin concentration-reaction curve obtained when the cells were treated with the medium was shifted two times to the right side, was calculated. The inhibiting effects of the test compounds were compared using this value as an indicator.
In the case where a compound of the present invention is an agonist, when the cells are treated with the compound of the present invention prior to the capsaicin stimulation, the Ca influx is observed. In Table 1, compounds of the present invention having an A2 value of less than 100 nM are represented by A, and compounds having an A2 value of 100 nM or more are represented by B. When the A2 values of the compounds of the present invention were measured by the above-described method, the compounds have an intensity of 1 μM or less.

| Structure (SMILES) | A2 VALUE |
| --- | --- |
| O=C(/C=C1\CCOc2cc(C(F)(F)F)ccc21)Nc1cccc2c1CC(O)CO2 (stereo not shown) [Example 125, (E)-N-(3-hydroxy-chroman-5-yl)-2-(7-trifluoromethyl-chroman-4-ylidene)acetamide] | A (compounds of the present invention having an A2 value of less than 100 nM are represented by A) |
| O=C(/C=C1\CCCOc2cc(C(F)(F)F)ccc21)Nc1ccc2nccnc2c1 [Example 12, (E)-2-(8-trifluoromethyl-3,4-dihydrobenzo[b]oxepin-5(2H)-ylidene)-N-(quinoxalin-6-yl)acetamide] | A (compounds of the present invention having an A2 value of less than 100 nM are represented by A) |
| CN1CC(O)Cc2c(NC(=O)/C=C3\CCCOc4cc(C(F)(F)F)ccc43)cccc21 (stereo not shown) [Example 69, (E)-2-(8-trifluoromethyl-3,4-dihydrobenzo[b]oxepin-5-(2H)-ylidene)-N-(1-methyl-3-hydroxy-1,2,3,4-tetrahydroquinolin-5-yl)acetamide] | A (compounds of the present invention having an A2 value of less than 100 nM are represented by A) |
| CC(NC(=O)/C=C1\CCCOc2cc(C(F)(F)F)ccc21)c1ccccn1 (stereo not shown) [Example 30, (E)-2-(8-trifluoromethyl-3,4-dihydrobenzo[b]oxepin-5(2H)-ylidene)-N-(1-(pyridin-2-yl)ethyl)acetamide] | B (compounds having an A2 value of 100 nM or more are represented by B) |
| O=C(/C=C1\CCCOc2cc(C(F)(F)F)ccc21)Nc1ccc(C(=O)N2CCOCC2)cc1 [Example 25, (E)-2-(8-trifluoromethyl-3,4-dihydrobenzo[b]oxepin-5(2H)-ylidene)-N-(4-(4-morpholinylcarbonyl)phenyl)acetamide] | B (compounds having an A2 value of 100 nM or more are represented by B) |
| O=C(/C=C1\CCCOc2cc(C(F)(F)F)ccc21)Nc1ccc2sc(CO)nc2c1 [Example 59, (E)-2-(8-trifluoromethyl-3,4-dihydrobenzo[b]oxepin-5(2H)-ylidene)-N-(2-hydroxymethyl-1,3-benzothiazolo-5-yl)acetamide] | A (compounds of the present invention having an A2 value of less than 100 nM are represented by A) |
| O=C(/C=C1\CCOc2cc(C(F)(F)F)ccc21)Nc1cccc2c1CC(O)C(=O)N2 (stereo not shown) [Example 121, (E)-N-(3-hydroxy-2-oxo-1,2,3,4-tetrahydroquinolin-5-yl)-2-(7-trifluoromethyl-chroman-4-ylidene)acetamide] | A (compounds of the present invention having an A2 value of less than 100 nM are represented by A) |
| CC1(C)C/C(=C\C(=O)Nc2cccc3c2CC(O)CN3)c2ccc(C(F)(F)F)cc2O1 (stereo not shown) [Example 245, (E)-2-(7-trifluoromethyl-2,2-dimethylchroman-4-ylidene)-N-(3-hydroxy-1,2,3,4-tetrahydroquinolin-5-yl)acetamide] | A (compounds of the present invention having an A2 value of less than 100 nM are represented by A) |
| O=C(/C=C1\CCN(C(=O)CC2CCCC2)c2cc(C(F)(F)F)ccc21)Nc1ccc2cccnc2c1 [Example 102, (E)-2-(7-trifluoromethyl-2,3-dihydro-1-(cyclopentylacetyl)quinolin-4(1H)-ylidene)-N-(quinolin-7-yl)acetamide] | A (compounds of the present invention having an A2 value of less than 100 nM are represented by A) |
| CC(F)(F)CC(=O)N1CC/C(=C\C(=O)Nc2cccc3c2CC(O)CC3)c2ccc(C(F)(F)F)cc21 (stereo not shown) [Example 116, (E)-2-(1-(3,3-difluorobutanoyl)-7-trifluoromethyl-2,3-dihydroquinolin-4(1H)-ylidene)-N-(7-hydroxy-5,6,7,8-tetrahydronaphthalen-1-yl)acetamide] | A (compounds of the present invention having an A2 value of less than 100 nM are represented by A) |
| CCCC(C)(C)C(=O)N1CC/C(=C\C(=O)Nc2ccc3cccnc3c2)c2ccc(C(F)(F)F)cc21 [Example 81, (E)-2-(1-(2,2-dimethylpentanoyl)-7-trifluoromethyl-2,3-dihydroquinolin-4(1H)-ylidene)-N-(quinolin-7-yl)acetamide] | A (compounds of the present invention having an A2 value of less than 100 nM are represented by A) |
| O=C(/C=C1\CCN(C(=O)C2(O)CC2)c2cc(C(F)(F)F)ccc21)Nc1cccc2c1CC(O)CC2 (stereo not shown) [Example 112, (E)-2-(1-(1-hydroxycyclopropanecarbonyl)-7-trifluoromethyl-2,3-dihydroquinolin-4(1H)-ylidene)-N-(7-hydroxy-5,6,7,8-tetrahydronaphthalen-1-yl)acetamide] | B (compounds having an A2 value of 100 nM or more are represented by B) |
| O=C(/C=C1\CCOc2cc(C(F)(F)F)ccc21)Nc1ccc2sc(CO)nc2c1 [Example 216, (E)-2-(7-trifluoromethyl-chroman-4-ylidene)-N-(2-hydroxymethyl-1,3-benzothiazolo-5-yl)acetamide] | A (compounds of the present invention having an A2 value of less than 100 nM are represented by A) |
| O=C(/C=C1\CCCOc2cc(C(F)(F)F)ccc21)Nc1ccc2ccc(=O)[nH]c2c1 [Example 134, (E)-2-(8-trifluoromethyl-3,4-dihydrobenzo[b]oxepin-5(2H)-ylidene)-N-(2-quinolon-7-yl)acetamide] | A (compounds of the present invention having an A2 value of less than 100 nM are represented by A) |
| O=C(/C=C1\CCCOc2cc(C(F)(F)F)ccc21)Nc1ccc2c(c1)C(=O)N(CCO)C2 [Example 176, (E)-2-(8-trifluoromethyl-3,4-dihydrobenzo[b]oxepin-5(2H)-ylidene)-N-(2-hydroxyethyl-2,3-dihydro-isoindol-1-on-6-yl)acetamide] | B (compounds having an A2 value of 100 nM or more are represented by B) |
| O=C(/C=C1\CCOc2cc(Cl)ccc21)Nc1cccc2c1CC(O)CN2 (stereo not shown) [Example 209, (E)-2-(7-chloro-chroman-4-ylidene)-N-(3-hydroxy-1,2,3,4-tetrahydroquinolin-5-yl)acetamide] | A (compounds of the present invention having an A2 value of less than 100 nM are represented by A) |
| O=C(/C=C1\CCN(C(=O)CCCC(F)(F)F)c2cc(C(F)(F)F)ccc21)Nc1cccc2c1CC(O)CC2 (stereo not shown) [Example 93, (E)-2-(1-(5,5,5-trifluoropentanoyl)-7-trifluoromethyl-2,3-dihydroquinolin-4(1H)-ylidene)-N-(7-hydroxy-5,6,7,8-tetrahydronaphthalen-1-yl)acetamide] | A (compounds of the present invention having an A2 value of less than 100 nM are represented by A) |
| O=CN1CC/C(=C\C(=O)Nc2cccc3c2CC(O)CC3)c2ccc(C(F)(F)F)cc21 (stereo not shown) [Example 114, (E)-2-(1-formyl-7-trifluoromethyl-2,3-dihydroquinolin-4(1H)-ylidene)-N-(7-hydroxy-5,6,7,8-tetrahydronaphthalen-1-yl)acetamide] | A (compounds of the present invention having an A2 value of less than 100 nM are represented by A) |
| CN1C(=O)CCc2ccc(NC(=O)/C=C3\CCCOc4cc(C(F)(F)F)ccc43)cc21 [Example 178, (E)-2-(8-trifluoromethyl-3,4-dihydrobenzo[b]oxepin-5(2H)-ylidene)-N-(1-methyl-2-oxo-1,2,3,4-tetrahydroquinolin-7-yl)acetamide] | A (compounds of the present invention having an A2 value of less than 100 nM are represented by A) |
| O=C(/C=C1\CCCOc2cc(C(F)(F)F)ccc21)NCc1ccccc1N1CCOCC1 [Example 36, (E)-2-(8-trifluoromethyl-3,4-dihydrobenzo[b]oxepin-5(2H)-ylidene)-N-(2-morpholinophenyl)methyl-acetamide] | B (compounds having an A2 value of 100 nM or more are represented by B) |
| Cn1ccc2ccc(NC(=O)/C=C3\CCCOc4cc(C(F)(F)F)ccc43)cc21 [Example 152, (E)-2-(8-trifluoromethyl-3,4-dihydrobenzo[b]oxepin-5(2H)-ylidene)-N-(1-methylindol-6-yl)acetamide] | A (compounds of the present invention having an A2 value of less than 100 nM are represented by A) |
| O=C(/C=C1\CCOc2ccccc21)Nc1ccc2c(c1)OCCO2 [Example 1, (E)-2-(chroman-4-ylidene)-N-(2,3-dihydrobenzo[b][1,4]dioxin-6-yl)acetamide] | B (compounds having an A2 value of 100 nM or more are represented by B) |
